Laboratory results from patent EP0536424A1, “NOVEL BENZOPYRAN DERIVATIVE” (Japan Tobacco Inc., priority 1991, dated 1992).
Read-outs that look alike come from different tables or passages of the source.

Legend:
coronary blood flow rate = test: Action on the coronary blood flow rate in dog (anesthetized, left coronary artery perfused with femoral arterial blood); format: in vivo; conditions: administered into the coronary artery; for ED 50: dose increasing coronary blood flow rate by 50% of the reaction caused by niphedipine 1 µg (set at 100%); for Durationng: time during which the compound produced at least 50% of its efficacy at the ED₅₀ dosage
Method: Dogs with ether sex were anesthetized with pentobarbital (30 mg/kg,intravenous administration), followed by intravenous heparin administration (500 U/kg) to the dogs under artificial respiration. Then, according to Yago's method described in Folia pharmacol. japon., 57,380 (1961), the left coronary artery was perfused with the right femoral arterial blood so as to measure the blood perfusion amount with an electromagnetic blood flow meter. The example compound was administered into the coronary artery by using a micro syringe just before a stainless steel cannula inserted into the coronary artery. The increase in the coronary blood flow rate caused by the example compound was determined by standardizing the reactivity among the specimen subject, with the reaction caused by the niphedipine administration (1 µg) into the coronary artery of the specimen subject being set at 100%. To be more specific, the intensity of the action due to the example compound was determined in terms of ED₅₀ required for increasing the coronary blood flow rate by 50% on the basis of the reaction caused by niphedipine administered into the coronary artery in an amount of 1 µg. Further, the duration of the effect produced by the example compound was determined in terms of the time (minutes) during which the compound produced at least 50% of efficacy on the basis that the efficacy of the compound in the ED₅₀ dosage noted above was set at 100%. […]

[1] = test system: aorta thoracica of a male Wister rat; test: Blood vessel relaxing action (relaxation of phenylephrine-contracted, endothelium-denuded spiral strip); conditions: concentration inhibiting 50% of the contraction achieved by phenylephrine (10⁻⁶ M), compound 10⁻⁸ to 10⁻⁵ M added cumulatively, 37°C, read-out: IC₅₀
Method: Preparation of the extracted blood vessel sample and the experiment were conducted by the methods of Toda et al. described in J. Cardiovasc. Pharmacol., 7,1118 (1985). The aorta thoracica of a male Wister rat was used as a sample. To be more specific, a spiral piece was prepared by peeling endothelium about 1 cm long from the artery to provide the sample. The endothelium was peeled off by rubbing with a swab. A Krebs-Hensterite solution of 37°C saturated with 95% O₂ and 5% CO₂ was used as a nutrient solution. After application of 1g as suspending load to the sample, changes in tension were measured by rectigraph via an isometric transducer. After the aorta thoracica was contracted by phenylephrine (10⁻⁶ M), a compound to be examined (an example compound) of 10⁻⁸ to 10⁻⁵ M was cumulatively added to determine the relaxing action of the compound quantitatively. The relaxing effect of the example compound was determined in terms of the concentration IC₅₀ of the compound required for inhibiting 50% of the contraction achieved by phenylephrine (10⁻⁶ M). Lema Kalin was used as reference compound A. On the other hand, reference compound B was provided by N'-cyano-N-(trans-6-cyano-3,4-dihydro-2,2-dimethyl-3-hydroxy-2H-1-benzopyran-4-yl)-benzamidine. […]

Row | Compound | ED 50 (coronary blood flow rate) [µg] | Durationng (coronary blood flow rate) [minuted] | IC50 ([1]; Rattus norvegicus) [nM] | IC50 [1] [nM]
1 | CC1(C)Oc2ccc(C#N)cc2[C@@H](NC(=NC#N)c2ccc(F)cc2)[C@@H]1O (relative stereo) [Example 16, N'-cyano-N-(trans-6-cyano-3,4-dihydro-2,2-dimethyl-3-hydroxy-2H-1-benzopyran-4-yl)-4-fluorobenzamidine] | 1.5 | 2.5 | 60 | –
2 | CC1(C)Oc2ccc(C#N)cc2[C@@H](N2CCCC2=O)[C@@H]1O [Reference Compound A, Lema Kalin, reference compound] | 1.1 | 2.5 | – | 400
3 | CC1(C)Oc2ccc(C#N)cc2[C@@H](NC(=NC#N)c2cccnc2)[C@@H]1O (relative stereo) [Example 3, N'-cyano-N-(trans-6-cyano-3,4-dihydro-2,2-dimethyl-3-hydroxy-2H-1benzopyran-4-yl]-3-pyridinecarboxamidine] | 1.9 | 4.0 | 600 | –
4 | CC1(C)Oc2ccc(C#N)cc2[C@@H](NC(=N[N+](=O)[O-])c2ccccn2)[C@@H]1O (relative stereo) [Example 14, N-(trans-6-cyano-3,4-dihydro-2,2-dimethyl-3-hydroxy-2H-1-benzopyran-4yl)-N'-nitro-2-pyridinecarboxamidine] | – | – | 1000 | –
5 | CC1(C)Oc2ccc(C#N)cc2[C@@H](NC(=NC#N)c2ccccc2)[C@@H]1O (relative stereo) [Reference Compound B, N'-cyano-N-(trans-6-cyano-3,4-dihydro-2,2-dimethyl-3-hydroxy-2H-1-benzopyran-4-yl)-benzamidine, reference compound] | 4.2 | 1.9 | 1000 | –
